From US7468445B2, “Antigiardial agents and use thereof” (University of Mississippi, priority 2002, dated 2008)
Values after ≈ are worked out from the molar mass of the structure shown.

Tested on: Giardia lamblia
Experiment: not given
Settings: biological evaluation of natural products; formononetin and pseudobaptigenin in vitro; cited from earlier work

Row | Compound | antigiardial activity
1 | COc1ccc(-c2coc3cc(O)ccc3c2=O)cc1 [formononetin] | potent antigiardial activity
2 | O=c1c(O)c(-c2ccc(O)cc2)oc2cc(O)cc(O)c12 [kaempferol] | exhibit antigiardial activity
3 | O=c1c(-c2ccc3c(c2)OCO3)coc2cc(O)ccc12 [pseudobaptigenin] | potent antigiardial activity
4 | O=c1c(O)c(-c2ccc(O)c(O)c2)oc2cc(O)cc(O)c12 [quercetin] | exhibit antigiardial activity
5 | geranins A [geranin A] | exhibit antigiardial activity

Tested on: Giardia intestinalis (ATCC #30888)
Experiment: Antigiardial biological screening (XTT tetrazolium dye procedure)
Format: cell-based
Settings: Giardia duodenalis, ATCC30888; concentration that inhibits giardial growth by 50%, estimated graphically; samples at 10, 3.3 and 1.1 μg/mL, 24 h at 37° C., XTT; NA = inactive; read-out: IC50
Experimental: Biological Screening. […] Subculturing was done every 48-72 h under a sterile biosafety hood. Tubes were chilled in an ice bath for 10 min. in order to detach the organisms, and 1 mL of cell suspension was added to 14 mL of fresh medium. To carry out the screening, a suspension of Giardia cells was prepared at a concentration of 100,000 cells/mL. 100 μL of the suspension was then added to each well of a Corning 96-well flat-bottomed tissue culture-treated plate. Blank wells received medium only. An additional 125 μL of medium was added to each well, and the plates were incubated at 37° C. for 24 h in an anaerobic chamber filled with nitrogen. […] The plates were further incubated at 37° C. for 24 h. The plates were then processed using a tetrazolium dye (XTT) procedure. Absorbance readings were taken at 450 nm with background at 630 nm subtracted.

Row | IC50 [mg/L] | Compound
6 | 1.6 (≈ 5.05 µM) | O=c1c(-c2ccccc2)coc2c(Br)c(O)ccc12 [P(A3,B1), 8-Bromo-7-hydroxy-3-phenylchromen-4-one]
7 | 5 (≈ 15.8 µM) | O=c1c(-c2ccccc2)coc2cc(O)c(Br)cc12 [P(A6,B1), 6-Bromo-7-hydroxy-3-phenylchromen-4-one]

Further lines, the compound ahead of its results:

Row | Compound | IC50 [mg/L]
8 | O=c1c(-c2ccccc2)coc2c(Cl)c(O)ccc12 [P(A2,B1), 8-Chloro-7-hydroxy-3-phenylchromen-4-one] | 1.7 (≈ 6.23 µM)
9 | Cc1ncc([N+](=O)[O-])n1CCO [metronidazole, reference compound] | 1.5 (≈ 8.76 µM)

Same assay, conditions: concentration that inhibits giardial growth by 50%, estimated graphically; samples at 10, 3.3 and 1.1 μg/mL, 24 h at 37° C., XTT; NA = inactive

Row | IC50 [mg/L] | Compound
10 | >10.0 | Cc1cccc(-c2coc3c(Cl)c(O)ccc3c2=O)c1 [P(A2,B19)]
11 | >10.0 | Cc1ccc(-c2coc3c(Cl)c(O)ccc3c2=O)cc1 [P(A2,B20)]
12 | 3.7 (≈ 12 µM) | O=c1c(-c2ccc(F)c(F)c2)coc2c(Cl)c(O)ccc12 [P(A2,B22)]
13 | <1.1 | O=c1c(-c2cc(F)cc(F)c2)coc2c(Cl)c(O)ccc12 [P(A2,B23)]
14 | <1.1 | O=c1c(-c2cccc(Br)c2)coc2c(Cl)c(O)ccc12 [P(A2,B26)]
15 | 1.7 (≈ 5.54 µM) | O=c1c(-c2cccc(Cl)c2)coc2c(Cl)c(O)ccc12 [P(A2,B27)]
16 | 5.2 (≈ 17.9 µM) | O=c1c(-c2cccc(F)c2)coc2c(Cl)c(O)ccc12 [P(A2,B28)]
17 | 4.8 (≈ 15.9 µM) | COc1cccc(-c2coc3c(Cl)c(O)ccc3c2=O)c1 [P(A2,B29)]
18 | 1.9 (≈ 5.4 µM) | O=c1c(-c2ccc(Cl)cc2)coc2c(Br)c(O)ccc12 [P(A3,B8)]
19 | 6.8 (≈ 20.3 µM) | O=c1c(-c2ccc(F)cc2)coc2c(Br)c(O)ccc12 [P(A3,B9)]
20 | 9.3 (≈ 25.7 µM) | CCOc1ccc(-c2coc3c(Br)c(O)ccc3c2=O)cc1 [P(A3,B10)]
21 | <1.1 | COc1ccc(-c2coc3c(Br)c(O)ccc3c2=O)cc1 [P(A3,B11)]
22 | >10.0 | O=c1c(-c2ccc(Br)cc2)coc2c(Br)c(O)ccc12 [P(A3,B17)]
23 | <1.1 | Cc1cccc(-c2coc3c(Br)c(O)ccc3c2=O)c1 [P(A3,B19)]
24 | 3.9 (≈ 11.8 µM) | Cc1ccc(-c2coc3c(Br)c(O)ccc3c2=O)cc1 [P(A3,B20)]
25 | 1.9 (≈ 5.4 µM) | O=c1c(-c2cccc(Cl)c2)coc2c(Br)c(O)ccc12 [P(A3,B27)]
26 | <1.1 | O=c1c(-c2cccc(F)c2)coc2c(Br)c(O)ccc12 [P(A3,B28)]

Row | IC50 [mg/L] | Compound
27 | 6.2 (≈ 24.2 µM) | O=c1c(-c2ccccc2)coc2cc(O)c(F)cc12 [P(A4,B1)]
28 | 6.4 (≈ 22 µM) | O=c1c(-c2ccc(Cl)cc2)coc2cc(O)c(F)cc12 [P(A4,B8)]
29 | >10.0 | O=c1c(-c2ccc(F)cc2)coc2cc(O)c(F)cc12 [P(A4,B9)]
30 | >10.0 | COc1ccc(-c2coc3cc(O)c(F)cc3c2=O)cc1 [P(A4,B11)]
31 | 9.0 (≈ 26.9 µM) | O=c1c(-c2ccc(Br)cc2)coc2cc(O)c(F)cc12 [P(A4,B17)]
32 | <1.1 | Cc1cccc(-c2coc3cc(O)c(F)cc3c2=O)c1 [P(A4,B19)]
33 | >10.0 | Cc1ccc(-c2coc3cc(O)c(F)cc3c2=O)cc1 [P(A4,B20)]
34 | >10.0 | O=c1c(-c2ccc(Cl)c(Cl)c2)coc2cc(O)c(F)cc12 [P(A4,B21)]
35 | 9.4 (≈ 32.2 µM) | O=c1c(-c2ccc(F)c(F)c2)coc2cc(O)c(F)cc12 [P(A4,B22)]
36 | 4.3 (≈ 15.7 µM) | O=c1c(-c2cccc(F)c2)coc2cc(O)c(F)cc12 [P(A4,B28)]
37 | >10.0 | O=c1c(-c2ccc(Br)cc2)coc2cc(O)c(Cl)cc12 [P(A5,B17)]
38 | 2.5 (≈ 8.72 µM) | Cc1cccc(-c2coc3cc(O)c(Cl)cc3c2=O)c1 [P(A5,B19)]
39 | 9.8 (≈ 28.7 µM) | O=c1c(-c2ccc(Cl)c(Cl)c2)coc2cc(O)c(Cl)cc12 [P(A5,B21)]
40 | 6.7 (≈ 21.7 µM) | O=c1c(-c2cc(F)cc(F)c2)coc2cc(O)c(Cl)cc12 [P(A5,B23)]
41 | >10.0 | O=c1c(-c2cccc(Cl)c2)coc2cc(O)c(Cl)cc12 [P(A5,B27)]
42 | >10.0 | Cc1ccc(-c2coc3cc(O)c(Br)cc3c2=O)cc1 [P(A6,B20)]
43 | <1.1 | O=c1c(-c2cccc(F)c2)coc2cc(O)c(Br)cc12 [P(A6,B28)]

The next lines start with the compound.

Row | Compound | IC50 [mg/L]
44 | O=c1c(-c2ccccc2)coc2c(F)c(O)ccc12 [P(A1,B1)] | <1.1
45 | O=c1c(-c2ccc(Cl)cc2)coc2c(F)c(O)ccc12 [P(A1,B8)] | >10.0
46 | O=c1c(-c2ccc(F)cc2)coc2c(F)c(O)ccc12 [P(A1,B9)] | >10.0
47 | COc1ccc(-c2coc3c(F)c(O)ccc3c2=O)cc1 [P(A1,B11)] | <1.1
48 | O=c1c(-c2ccc(Br)cc2)coc2c(F)c(O)ccc12 [P(A1,B17)] | >10.0
49 | CCOc1ccc(-c2coc3c(F)c(O)ccc3c2=O)cc1 [P(A1,B18)] | 8.8 (≈ 29.3 µM)
50 | Cc1cccc(-c2coc3c(F)c(O)ccc3c2=O)c1 [P(A1,B19)] | <1.1
51 | Cc1ccc(-c2coc3c(F)c(O)ccc3c2=O)cc1 [P(A1,B20)] | <1.1
52 | O=c1c(-c2ccc(F)c(F)c2)coc2c(F)c(O)ccc12 [P(A1,B22)] | <1.1
53 | O=c1c(-c2cccc(Cl)c2)coc2c(F)c(O)ccc12 [P(A1,B27)] | <1.1
54 | O=c1c(-c2ccc(Cl)cc2)coc2c(Cl)c(O)ccc12 [P(A2,B8)] | 4.5 (≈ 14.7 µM)
55 | O=c1c(-c2ccc(F)cc2)coc2c(Cl)c(O)ccc12 [P(A2,B9)] | >10.0
56 | COc1ccc(-c2coc3c(Cl)c(O)ccc3c2=O)cc1 [P(A2,B11)] | >10.0
57 | O=c1c(-c2ccc(Br)cc2)coc2c(Cl)c(O)ccc12 [P(A2,B17)] | 5.7 (≈ 16.2 µM)
58 | CCOc1ccc(-c2coc3c(Cl)c(O)ccc3c2=O)cc1 [P(A2,B18)] | >10.0

Same assay, conditions: discussion of the IC50 table

Row | Compound | antigiardial activity/potency in words (SAR discussion)
59 | COc1ccc(-c2coc3c(F)c(O)ccc3c2=O)cc1 [P(A1,B11)] | enhanced potency
60 | O=c1c(-c2ccc(-c3ccccc3)cc2)coc2c(F)c(O)ccc12 [P(A1,B16)] | less activity
61 | Cc1cccc(-c2coc3c(F)c(O)ccc3c2=O)c1 [P(A1,B19)] | enhanced potency
62 | COc1ccc(-c2coc3c(Br)c(O)ccc3c2=O)cc1 [P(A3,B11)] | enhanced potency
63 | Cc1cccc(-c2coc3c(Br)c(O)ccc3c2=O)c1 [P(A3,B19)] | enhanced potency
64 | O=c1c(-c2cccc(F)c2)coc2c(Br)c(O)ccc12 [P(A3,B28)] | enhanced potency
65 | O=c1c(-c2ccc(-c3ccccc3)cc2)coc2cc(O)c(F)cc12 [P(A4,B16)] | less activity
66 | Cc1cccc(-c2coc3cc(O)c(F)cc3c2=O)c1 [P(A4,B19)] | enhanced potency
67 | O=c1c(-c2ccc(-c3ccccc3)cc2)coc2cc(O)c(Cl)cc12 [P(A5,B16)] | less activity
68 | O=c1c(-c2ccc(-c3ccccc3)cc2)coc2cc(O)c(Br)cc12 [P(A6,B16)] | less activity
69 | O=c1c(-c2cccc(F)c2)coc2cc(O)c(Br)cc12 [P(A6,B28)] | enhanced potency

Tested on: not given
Experiment: not given
Settings: not given

Row | melting point | Compound
70 | 242 to 244 °C | O=c1c(-c2ccccc2)coc2c(Cl)c(O)ccc12 [P(A2,B1), 8-Chloro-7-hydroxy-3-phenylchromen-4-one]
71 | 256 to 258 °C | O=c1c(-c2ccccc2)coc2c(Br)c(O)ccc12 [P(A3,B1), 8-Bromo-7-hydroxy-3-phenylchromen-4-one]
72 | 279 to 280 °C | O=c1c(-c2ccccc2)coc2cc(O)c(Cl)cc12 [P(A5,B1), 6-Chloro-7-hydroxy-3-phenylchromen-4-one]
73 | 296 to 297 °C (dec.) | O=c1c(-c2ccccc2)coc2cc(O)c(Br)cc12 [P(A6,B1), 6-Bromo-7-hydroxy-3-phenylchromen-4-one]
